Experimental data from US6344214B1, “Method for retarding and ameliorating fever blisters and canker sores” (priority 1999, dated 2002).
Like-named read-outs stand apart in the source and are kept apart here.

Tests used:
[1] = tested on: rat kidney fibroblasts; conditions: UVA light for four hours; cited from earlier work
[2] = tested on: shrimp; conditions: 50 mg/kg diet, 3 months; cited from earlier work
[3] = tested on: herpes Simplex virus; conditions: cited from earlier work
[4] = tested on: cold sores; assay: Example 1: oral astaxanthin soft gel capsules, cold sore outbreaks in one individual; assay type: in vivo, human
Description: (§1) Haematococcus algae meal containing 1.5% astaxanthin was thoroughly mixed with safflower oil such that the resulting suspension contained 2.0 mg of pure astaxanthin per gram of safflower oil suspension. 500 mg soft gel capsules were produced from the safflower oil suspension such that each soft gel capsule contained 1.0 mg of pure astaxanthin.
One individual was a person who has suffered from cold sore outbreaks every 4-6 weeks on average which lasted 10-14 days . This individual consumed 3.0 mg of astaxanthin (three soft gel capsules) per day for two weeks prior to an outbreak, and the symptoms lasted only 2 days instead of 2 weeks.

[5] = tested on: canker sores; assay: Example 2: oral astaxanthin soft gel capsules, canker sores in one individual; assay type: in vivo, human
Description: as §1
A second individual was a person who had often suffered canker sores on the inside of their mouth. They had difficulty and pain eating sour and tart foods due to the condition. This individual consumed 2.0 mg of astaxanthin (two soft gel capsules) per day for three weeks and the cankers sores were alleviated. They were then able to eat sour and tart foods without suffering pain from the canker sores. When the individual stopped taking the supplement the canker sores returned within 10 days.

[6] = tested on: neoplasms in the large intestines; conditions: rats fed astaxanthin, azoxymethane induction; cited from earlier work
[7] = tested on: preneoplastic lesions and neoplasms in the bladder; conditions: 50-ppm astaxanthin in drinking water; cited from earlier work
[8] = tested on: neoplasms in the oral cavity; conditions: cited from earlier work
[9] = tested on: neoplastic liver lesions; conditions: dietary astaxanthin; cited from earlier work
[10] = tested on: CYP1A1; conditions: dietary level 300 ppm; cited from earlier work
[11] = tested on: free putrescine in the epidermis; conditions: 10 ppm astaxanthin diet, 4 months; control increased 4.1-fold; cited from earlier work
[12] = tested on: chicken embryo fibroblasts (CEF); conditions: SOD, catalase, glutathione peroxidase as indices; cited from earlier work
[13] = 0.1% dietary astaxanthin for 30 days, cited from earlier work
[14] = 2 mg astaxanthin capsule, six months; placebo 21.78; P=0.047; cited from earlier work
[15] = tested on: Atlantic salmon fry; conditions: cited from earlier work
[16] = in vivo; cited from earlier work
[17] = tested on: photoreceptor cells of the retina; conditions: 37.5 mg/kg intraperitoneal at 12 hour intervals; uninjured control 45, injured without astaxanthin 32; cited from earlier work
[18] = tested on: rhodopsin; conditions: oral dosing, cited from earlier work
[19] = tested on: rats; conditions: 400 ppm for 41 days; cited from earlier work

## CC1=C(/C=C/C(C)=C/C=C/C(C)=C/C=C/C=C(C)/C=C/C=C(C)/C=C/C2=C(C)CCCC2(C)C)C(C)(C)CCC1 [beta-carotene]
[1]
  level required to restore superoxide dismutase activity: 500 nM
  level that prevented the UVA-induced increase in TBARS: 100 nM
  level that returned catalase activity to control levels: 1000 nM
[2]
  average survival rate: 50%

## CC1=C[C@H](O)CC(C)(C)[C@H]1/C=C/C(C)=C/C=C/C(C)=C/C=C/C=C(C)/C=C/C=C(C)/C=C/C1=C(C)C[C@@H](O)CC1(C)C [lutein]
[1]
  level required to restore superoxide dismutase activity: 1000 nM
  level that prevented the UVA-induced increase in TBARS: 1000 nM
  level that returned catalase activity to control levels: 100 nM

## Nc1nc2c(ncn2COCCO)c(=O)[nH]1 [acyclovir, Acyclovir]
[3]; four acyclovir pills daily for 4 months
  patients with no fever blister outbreaks: 50%
[3]; pills taken at onset of symptoms, or cream applied to blisters or tingling lip areas, separate studies
  effectiveness against fever blisters: only minimally effective

## CC1=C(/C=C/C(C)=C/C=C/C(C)=C/C=C/C=C(C)/C=C/C=C(C)/C=C/C2=C(C)C(=O)[C@@H](O)CC2(C)C)C(C)(C)C[C@H](O)C1=O [astaxanthin]
[4]; 3.0 mg astaxanthin per day (three soft gel capsules) for two weeks before the outbreak, earlier 10-14 days
  duration of cold sore symptoms: 2 days
[4]; 3.0 mg per day, earlier outbreaks every 4-6 weeks
  recurrence of cold sores: has not had a another recurrence of cold sores in three months
[5]; 2.0 mg astaxanthin per day (two soft gel capsules) for three weeks
  effect on canker sores: alleviated
[5]; after stopping 2.0 mg per day
  time to return of canker sores after stopping the supplement: ≤ 10 days
[5]; same dosage, 2.0 mg per day
  effect on symptoms on taking the supplement again: ameliorated after approximately three weeks
[6]
  incidence and multiplicity of neoplasms in the large intestines: significantly smaller
[7]
  incidence of preneoplastic lesions and neoplasms in the bladder: significantly reduced incidence
[8]; 100-ppm dietary astaxanthin after the carcinogenic chemical induction
  incidences of preneoplastic and neoplasms in the oral cavity: significantly smaller
[8]; astaxanthin and the chemical inducer fed at the same time
  oral neoplasms: no oral neoplasms developed
[9]
  number and size of neoplastic liver lesions: significant influence on the reduction in number and size
[10]
  induction of CYP1A1: strong inducer
[11]
  increase of putrescine after UV irradiation: 1.5 fold
[1]
  level required to restore superoxide dismutase activity: 5 nM
  level that prevented the UVA-induced increase in TBARS: 1 nM
  level that returned catalase activity to control levels: 5 nM
[12]
  protection against paraquat-induced oxidative stress: observed at all levels of astaxanthin tested
[13]; control diet 12.5
  LDL cholesterol: 9.6 mg/dL
[13]; control diet 42.4
  HDL cholesterol: 57 mg/dL
[14]
  strength/endurance average score (knee bends with a barbell weight): 61.74
[2]
  average survival rate: 87%
[15]; astaxanthin concentrations below 1 ppm in diet
  survival rate: less than 50%
[15]; groups receiving higher concentrations
  survival rate: greater than 90%
[16]
  crossing of the blood-brain barrier: able to readily cross the blood-brain barrier
[17]
  outer nuclear layer (ONL) thickness after photic injury: 42 microns
[18]; 6-hour post injury, control 0.75
  retinal rhodopsin level: 1.15 to 1.2 nmol
[18]; 6 days after injury, constant through day 13, control 0.5
  retinal rhodopsin level: about 1.25 nmol
[19]
  effects on body/organ weight, enzyme activities, pregnancy, litter size: no harmful effects
